According to patent publication US6150524A, “Morphine derivatives with analgesic activity” (priority 1995, dated 2000):
Where a name gives a salt, the structure may show the parent alone. Read-outs that look alike come from different tables or passages of the source.

Tested on: mice
Assay: Haffner test ("Tail clip test") in mice
Assay type: in vivo, mouse (male CD mice)
Conditions: Mus musculus, read-out: ED50 (Haffner test in mice)
From the text: METHOD: Haffner Test ("Tail clip test") in Mice
The Haffner test is a standard procedure for determining the pain-inhibiting effect of powerful analgesics, mostly of the opioid type, in mice. The method largely corresponds to the one described by Bianchi C. and Franceschini J. (Brit. J. Pharmacol. 9:280, 1954; Experimental observations on Haffner's method for testing analgesic drugs).
Male CD mice (from Charles River, Sulzfeld, FRG) with an average weight of 30±5 grams were used. The animals were kept under standard conditions (temperature: 22±2° C., relative humidity: 55±10%, air exchange: 15-20 times per hour and 12/12 hours light/darkness cycle). The animals had unlimited access to food and water until the test began. During the test the animals were kept singly in Makrolon Type III cages with no bedding. A 3.5 cm arterial clamp was placed about 2 cm from the base of the tail and the pain reaction time was measured in seconds. Any active attempt by the animal to remove the clamp was assessed as a pain reaction. To prevent tissue damage, the test was stopped after at most 30 seconds in every case (cut off latency). In a preliminary test, mice with a pain reaction time of less than 5 seconds (base line latency) were selected for the actual test, which was carried out at specific intervals after the administration of the drug (test latency).
Corresponding quantities of test substances were dissolved in physiological saline solution for intravenous administration or in twice distilled water for oral administration. The total volume administered was 10 ml/kg of body weight in each case. Controls were given the same solvent but with no test substance. 8-10 mice were tested in each group.
The results were plotted as individual values (seconds), mean value±scattering (seconds) per group and as the percent of the maximum possible effect (% MPE=percent of Maximum Possible Effect). [formula] Significant differences between the control and test groups were calculated by means of an unpaired, two-sided Students T-test (*2P<0.05;**2P<0.01; 2P<0.001).
The ED50 value describes the dosage at which 50% of the maximum possible effect (MPE) is achieved. The ED50 value is calculated by linear regression between the dose and the % MPE.

| Compound | ED50 (iv, 10 min, i.v., 10 min.) [µmol/kg] | ED50 (iv, 0.5 h, i.v., 30 min.) [µmol/kg] | ED50 (iv, 1 h, i.v., 60 min.) [µmol/kg] | ED50 (iv, 2 h, i.v., 120 min.) [µmol/kg] | ED50 (po, 0.5 h, p.o., 30 min.) [µmol/kg] | ED50 (po, 1 h, p.o., 60 min.) [µmol/kg] | ED50 (po, 2 h, p.o., 120 min.) [µmol/kg] | ED50 (po, 3 h, p.o., 180 min.) [µmol/kg] | ED50 (iv, 10 min) [µmol/kg] | ED50 (iv, 0.5 h) [µmol/kg] | ED50 (iv, 1 h) [µmol/kg] | ED50 (iv, 2 h) [µmol/kg] | ED50 (po, 0.5 h) [µmol/kg] | ED50 (po, 1 h) [µmol/kg] | ED50 (po, 2 h) [µmol/kg] | ED50 (po, 3 h) [µmol/kg] |
| --- | --- | --- | --- | --- | --- | --- | --- | --- | --- | --- | --- | --- | --- | --- | --- | --- |
| COC(=O)CCCCC(=O)O[C@H]1CC[C@H]2[C@H]3Cc4ccc(O)c5c4[C@@]2(CCN3C)[C@H]1O5 [Example 4, 4,5α-Epoxy-6α-((5-methoxycarbonyl-valeryl)-oxy)-17-methyl-morphinan-3-ol acetate] | – | – | – | – | 0.039 | 0.044 | 0.073 | 0.189 | – | – | – | – | – | – | – | – |
| CN1CC[C@]23c4c5ccc(O)c4O[C@H]2[C@@H](OCCCCOC(=O)c2ccccc2)C=C[C@H]3[C@H]1C5 [Example 4] | 0.0004 | 0.0031 | 0.0119 | 0.0217 | 0.035 | 0.046 | 0.058 | 0.069 | – | – | – | – | – | – | – | – |
| COC(=O)c1ccc(CO[C@H]2C=C[C@H]3[C@H]4Cc5ccc(O)c6c5[C@@]3(CCN4C)[C@H]2O6)cc1 [Example 5] | 0.0008 | 0.0008 | 0.0032 | 0.0095 | 0.06 | 0.068 | 0.072 | 0.09 | – | – | – | – | – | – | – | – |
| CN1CC[C@]23c4c5ccc(O)c4O[C@H]2[C@@H](OCCCCOC(=O)C(C)(C)C)C=C[C@H]3[C@H]1C5 [Example 6] | 0.0005 | 0.0026 | 0.0114 | 0.029 | 0.058 | 0.108 | 0.12 | 0.132 | – | – | – | – | – | – | – | – |
| CN1CC[C@]23c4c5ccc(O)c4O[C@H]2[C@@H](OC(=O)C(C)(O)C(F)(F)F)C=C[C@H]3[C@H]1C5 (some centres unmarked) [Example 11] | 0.0056 | 0.007 | 0.013 | 0.019 | 0.148 | 0.172 | 0.256 | 0.269 | – | – | – | – | – | – | – | – |
| COc1ccc(CCCC(=O)O[C@H]2C=C[C@H]3[C@H]4Cc5ccc(O)c6c5[C@@]3(CCN4C)[C@H]2O6)cc1 [Example 19] | 0.002 | 0.0025 | 0.0033 | 0.0056 | 0.084 | 0.107 | 0.128 | 0.178 | – | – | – | – | – | – | – | – |
| COC(=O)CCCCC(=O)O[C@H]1C=C[C@H]2[C@H]3Cc4ccc(O)c5c4[C@@]2(CCN3C)[C@H]1O5 [Example 20] | 0.0037 | 0.0051 | 0.011 | 0.015 | 0.118 | 0.12 | 0.17 | 0.234 | – | – | – | – | – | – | – | – |
| COC(=O)CCCCCCC(=O)O[C@H]1C=C[C@H]2[C@H]3Cc4ccc(O)c5c4[C@@]2(CCN3C)[C@H]1O5 [Example 22, 4,5α-Epoxy-6α-((6-methoxycarbonyl-hexylcarbonyl)-oxy)-17-methyl-morphinan-7-en-3-ol] | 0.0025 | 0.0033 | 0.005 | 0.022 | 0.109 | 0.208 | 0.298 | 0.315 | – | – | – | – | – | – | – | – |
| CCOC(=O)CCCCCO[C@H]1C=C[C@H]2[C@H]3Cc4ccc(O)c5c4[C@@]2(CCN3C)[C@H]1O5 [Example 22] | 0.003 | 0.0037 | 0.01 | 0.012 | 0.055 | 0.09 | 0.096 | 0.086 | – | – | – | – | – | – | – | – |
| CCOC(=O)CCCCO[C@H]1C=C[C@H]2[C@H]3Cc4ccc(O)c5c4[C@@]2(CCN3C)[C@H]1O5 [Example 25] | 0.0011 | 0.0057 | 0.0112 | 0.0129 | 0.0201 | 0.028 | 0.031 | 0.037 | – | – | – | – | – | – | – | – |
| CN1CC[C@]23c4c5ccc(O)c4O[C@H]2[C@@H](OCCCCC#N)C=C[C@H]3[C@H]1C5 [Example 27] | 0.0059 | 0.0073 | 0.0154 | 0.038 | 0.059 | 0.073 | 0.108 | 0.178 | – | – | – | – | – | – | – | – |
| CCCC(COC1C=CC2C3Cc4ccc(O)c5c4C2(CCN3C)C1O5)OC(C)=O (centres unmarked) [Example 32] | 0.001 | 0.003 | 0.0099 | 0.024 | 0.068 | 0.12 | 0.154 | 0.232 | – | – | – | – | – | – | – | – |
| CCCC(O)CO[C@H]1C=C[C@H]2[C@H]3Cc4ccc(O)c5c4[C@@]2(CCN3C)[C@H]1O5 (some centres unmarked) [Example 33] | 0.0019 | 0.0046 | 0.0083 | 0.021 | 0.029 | 0.037 | 0.051 | 0.069 | – | – | – | – | – | – | – | – |
| CC(=O)OCCCO[C@H]1C=C[C@H]2[C@H]3Cc4ccc(O)c5c4[C@@]2(CCN3C)[C@H]1O5 [Example 38] | 0.0003 | 0.0019 | 0.0036 | 0.079 | 0.023 | 0.027 | 0.035 | 0.043 | – | – | – | – | – | – | – | – |
| CN1CC[C@]23c4c5ccc(O)c4O[C@H]2[C@@H](OCCCO)C=C[C@H]3[C@H]1C5 [Example 39] | – | – | – | – | 0.027 | 0.035 | 0.149 | 0.283 | – | – | – | – | – | – | – | – |
| CN1CC[C@]23c4c5ccc(O)c4O[C@H]2[C@@H](O)C=C[C@H]3[C@H]1C5 [Morphine.HCl, reference compound] | – | – | – | – | – | – | – | – | 0.017 | 0.019 | 0.021 | 0.037 | 0.279 | 0.296 | 0.539 | 0.718 |
